Structures can show the parent of a compound that is named as a salt. One block for each molecule: values may come before it.
Columns and labels:
[1] = Competitive stability study (slurry of Forms I-VI, XRPD); format: physicochemical; conditions: 2 days, room temperature
Procedure: To evaluate the transformation of Compound 1 phosphate solid forms, competitive slurry experiments were performed as follows: to a saturated solution (1.5 mL) of Compound 1 phosphate Form I in the solvent as listed in Table 14 was added Form I (6 mg), followed by stirring to give a cloudy solution, then 6 mg each of Form II through Form VI were added to the mixture. The slurry was stirred for 2 days at room temperature and analyzed by XRPD.

[2] = test system: pBAD in KMS12BM cells; assay: pBAD signaling assay in human whole blood, KMS12BM cells; format: cell-based; conditions: KMS-12-BM, read-out: IC50 pBAD whole blood (Ex. B, KMS12BM cells)
[3] = test system: KMS12BM cells; assay: Pim cell proliferation assay ([3H]-thymidine), KMS12BM; format: cell-based; conditions: Homo sapiens, KMS-12-BM; read-out: IC50 Tumor cell proliferation (Ex. B, KMS12BM cells)
Procedure: (§1) KM[…] and MOLM16 cells were purchased from DSMZ (Germany) and were maintained according to the recommendations of suppliers. To measure the anti-proliferation activities of test compounds, the cells were plated in their respective culture medium (2×10^3 cells/200 μL/well) into 96-well ultralow binding plates (Corning), with or without test compound(s). After 3 to 4 days, [3H]-thymidine (1 μCi/well) (PerkinElmer) in PBS (10 μL) was then added to the cell culture for an additional 12 hours before the incorporated radioactivity was separated by filtration with water through GF/B filters (Packard Bioscience) and measured by liquid scintillation counting with a TopCount (Packard Bioscience).

[4] = target: T1, Pim-1 (Homo sapiens, UniProt P11309); assay: Pim-1 kinase assay; format: biochemical; conditions: 1 mM ATP; read-out: IC50 PIM1 Enzyme (Ex. A)
T1 construct: purchased Invitrogen PV3503
T1 sequence (P11309 whole entry): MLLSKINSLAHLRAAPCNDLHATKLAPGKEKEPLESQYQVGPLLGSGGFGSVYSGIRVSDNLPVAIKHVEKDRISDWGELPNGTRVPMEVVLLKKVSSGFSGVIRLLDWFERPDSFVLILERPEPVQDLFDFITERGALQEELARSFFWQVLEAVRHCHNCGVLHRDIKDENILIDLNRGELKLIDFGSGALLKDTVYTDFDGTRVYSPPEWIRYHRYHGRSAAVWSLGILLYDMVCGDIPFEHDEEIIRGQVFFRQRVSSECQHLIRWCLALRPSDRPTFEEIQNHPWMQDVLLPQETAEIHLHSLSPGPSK
Procedure: Pim-1 and Pim-3 kinase assays—20 μL reactions can be run in white 384 well polystyrene plates dotted with 0.8 μL compound/DMSO in the assay buffer (50 mM Tris, pH 7.5, 0.01% Tween-20, 5 mM MgCl2, 0.01% BSA, 5 mM DTT), containing 0.05 μM Biotin-labeled BAD peptide substrate (AnaSpec 62269), 1 mM ATP, and 2.5 pM (Pim-1, Invitrogen PV3503) or 1.25 pM (Pim-3, Millipore 14-738) enzyme for 1 h at 25° C. Reactions are stopped by addition of 10 μL STOP Buffer (150 mM Tris, pH=7.5, 150 mM NaCl, 75 mM EDTA, 0.01% Tween-20, 0.3% BSA) supplemented with Phospho-Bad (Ser112) Antibody (Cell Signaling 9291) diluted 666-fold, and Streptavidin donor beads (PerkinElmer 6760002) along with Protein-A acceptor beads (PerkinElmer 6760137) at 15 μg/mL each. Supplementation of the STOP buffer with beads and stopping the reactions are done under reduced light. Prior to the stopping reactions STOP buffer with beads is pre-incubated for 1 h in the dark at room temperature. After stopping the reactions, plates are incubated for 1 h in the dark at room temperature before reading on a PHERAstar FS plate reader (BMG Labtech) under reduced light.

[5] = target: Pim-3 (Homo sapiens, UniProt Q86V86); assay: Pim-3 kinase assay; format: biochemical; conditions: 1 mM ATP; read-out: IC50 PIM3 Enzyme (Ex. A)
[6] = target: T2, Pim-2 (Homo sapiens, UniProt Q9P1W9); assay: Pim-2 kinase assay; format: biochemical; conditions: 1 mM ATP; read-out: IC50 PIM2 Enzyme (Ex. A)
T2 construct: purchased Invitrogen PV3649
T2 sequence (Q9P1W9 whole entry): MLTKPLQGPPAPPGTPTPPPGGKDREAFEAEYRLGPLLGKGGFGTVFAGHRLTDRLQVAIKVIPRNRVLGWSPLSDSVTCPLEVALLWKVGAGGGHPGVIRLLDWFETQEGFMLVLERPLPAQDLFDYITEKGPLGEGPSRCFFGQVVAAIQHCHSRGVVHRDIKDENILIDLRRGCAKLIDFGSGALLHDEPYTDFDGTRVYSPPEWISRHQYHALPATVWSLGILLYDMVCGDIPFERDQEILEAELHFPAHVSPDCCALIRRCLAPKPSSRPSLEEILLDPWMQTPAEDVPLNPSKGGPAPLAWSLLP
Procedure: Pim-2 kinase assay—20 μL reactions are run in white 384 well polystyrene plates dotted with 0.8 μL compound/DMSO in the assay buffer (50 mM Tris, pH 7.5, 0.01% Tween-20, 5 mM MgCl2, 0.01% BSA, 5 mM DTT), containing 0.05 μM Fluorescein-labeled CREBtide peptide substrate (Invitrogen PV3508), 1 mM ATP, and 1 nM enzyme (Invitrogen PV3649) for 2 h at 25° C. Reactions are stopped by addition of 10 μL TR-FRET Dilution Buffer (Invitrogen PV3574) with 30 mM EDTA and 1.5 nM LanthaScreen Tb-CREB pSer133 antibody (Invitrogen PV3566). After 30 min. incubation at room temperature, plates are read on a PHERAstar FS plate reader (BMG Labtech).

[7] = test system: pBAD in MOLM-16 cell; assay: pBAD signaling assay in human whole blood, MOLM16 cells; format: cell-based; conditions: read-out: IC50 pBAD whole blood (Ex. B, MOLM16 cells)
[8] = test system: MOLM16 cells; assay: Pim cell proliferation assay ([3H]-thymidine), MOLM16; format: cell-based; conditions: read-out: IC50 Tumor cell proliferation (Ex. B, MOLM16 cells)
Procedure: as §1

[9] = test system: pBAD in KMS12BM cells; assay: Pim pBAD signaling assay in KMS12BM cells; format: cell-based; conditions: Homo sapiens, KMS-12-BM, 2.5 hours, read-out: IC50 pBAD KMS12BM cells (Ex. B)
[10] = Stability study under phase equilibration conditions (XRPD); format: physicochemical; conditions: 2-3 days, all solvents and solvent mixtures tested
Procedure: Phase equilibration studies were designed to provide information on a predominant crystal form for phase identification. Compound 1 phosphoric acid salt (Form I) was equilibrated in a representative group of solvents at 25±1° C. (chloroform, DMF, 1,4-dioxane, methanol and methanol/20% water, 2-methoxyethanol and 2-methoxyethanol/20% water, MIBK, THF and THF/20% water, acetone, n-BuOH and n-BuOH/20% water, EtOH and EtOH/20% water, isobutyl acetate, 1-propanol and 1-propanol/20% water, isopropanol, water, and MEK) and 50±1° C. (chloroform, DMF, 1,4-dioxane, methanol and methanol/20% water, 2-methoxyethanol and 2-methoxyethanol/20% water, MIBK, THF and THF/20% water, acetone, n-BuOH and n-BuOH/20% water, EtOH and EtOH/20% water, EtOAc, ethyl formate, 1-propanol and 1-propanol/20% water, isopropanol, IPA/MeOH/Water (1.73/0.79/0.08), IPA/water (3/2), water) controlled by IKA® ETS-D5 temperature controller and IKA® RCT basic safety control.
To 3 mL of a solvent or a mixture of solvents (chosen from a list for the respective temperature) was added Compound 1 phosphate (Form I) until a cloudy solution was obtained, then, about 30 mg of Compound 1 phosphate (Form I) was added to the cloudy solution. The mixture was stirred at 25±1° C. or 50±1° C., respectively, for 2-3 days. The solid was filtered and analyzed by XRPD. […]

[11] = Stability study of Form I under environmental conditions (XRPD); format: physicochemical
Excerpt: Compound 1 phosphoric acid salt Form I was subjected to various different environmental conditions to assess stability.

[12] = target: PIM kinase; assay: Pim enzyme assays (isoform not given); format: biochemical; conditions: 1 mM ATP; Pim isoform not stated

Solid state form ([1]; IPA/MeOH/water/DMSO (56.6/28.3/3.0/12.1)): Form I | Solid state form ([1]; IPA/MeOH/water/DMSO (61.8/28.2/2.9/7.1)): Form I
Compound: C[C@H]1CN(c2c(NC(=O)c3ccc(F)c(-c4c(F)cccc4F)n3)cnc3c2CC[C@H]3O)C[C@@H](N)[C@@H]1O [Compound 1 H3PO4 salt, N-{(7R)-4-[(3R,4R,5S)-3-amino-4-hydroxy-5-methylpiperidin-1-yl]-7-hydroxy-6,7-dihydro-5H-cyclopenta[b]pyridin-3-yl}-6-(2,6-difluorophenyl)-5-fluoropyridine-2-carboxamide phosphoric acid salt]

IC50 [2]: < 200 nM | IC50 [4]: < 35 nM | IC50 [5]: < 35 nM | IC50 [6]: < 35 nM | IC50 [7]: < 100 nM | IC50 [8]: < 35 nM | IC50 [9]: < 35 nM
Compound: C[C@H]1CN(c2c(NC(=O)c3ccc(F)c(-c4c(F)cccc4F)n3)cnc3c2CC[C@H]3O)C[C@@H](N)[C@@H]1O [Compound 1 di-HCl salt, N-{(7R)-4-[(3R,4R,5S)-3-amino-4-hydroxy-5-methylpiperidin-1-yl]-7-hydroxy-6,7-dihydro-5H-cyclopenta[b]pyridin-3-yl}-6-(2,6-difluorophenyl)-5-fluoropyridine-2-carboxamide dihydrochloride]
IC50 [3]: < 100 nM

Solid form after phase equilibration (XRPD) ([10]; 25±1° C.): Form I | Solid form after phase equilibration (XRPD) ([10]; 50±1° C.): Form I | Crystalline Form (XRPD) ([11]; 40° C./75% RH for 1 week): Form I | Crystalline Form (XRPD) ([11]; 50° C. vacuum dry for 1 day): Form I | Crystalline Form (XRPD) ([11]; 100° C. vacuum dry for 1 day): Form I | Crystalline Form (XRPD) ([11]; 210° C. vacuum dry followed by 40° C./75% RH for 4 weeks): Form I | Crystalline Form (XRPD) ([11]; 210° C. vacuum dry for 20 min): Not Form I | Crystalline Form (XRPD) ([11]; Suspension in 0.5% methyl cellulose in water): Form I
Compound: C[C@H]1CN(c2c(NC(=O)c3ccc(F)c(-c4c(F)cccc4F)n3)cnc3c2CC[C@H]3O)C[C@@H](N)[C@@H]1O [Compound 1 phosphoric acid salt Form I, N-{(7R)-4-[(3R,4R,5S)-3-amino-4-hydroxy-5-methylpiperidin-1-yl]-7-hydroxy-6,7-dihydro-5H-cyclopenta[b]pyridin-3-yl}-6-(2,6-difluorophenyl)-5-fluoropyridine-2-carboxamide phosphoric acid salt]

IC50 [12]: < 100 nM
Compound: C[C@H]1CN(c2c(NC(=O)c3ccc(F)c(-c4c(F)cccc4F)n3)cnc3c2CC[C@H]3O)C[C@@H](N)[C@@H]1O [Compound 1, N-{(7R)-4-[(3R,4R,5S)-3-amino-4-hydroxy-5-methylpiperidin-1-yl]-7-hydroxy-6,7-dihydro-5H-cyclopenta[b]pyridin-3-yl}-6-(2,6-difluorophenyl)-5-fluoropyridine-2-carboxamide]
